According to patent US9079876B2, “Imidazole derivatives and preparation method and use thereof” (Beijing Orbiepharm Co., Ltd., priority 2010, dated 2015):

Assays:
[1] = biological target: T1, cyclooxygenase-1 (COX-1 enzyme) (Homo sapiens, UniProt P23219); experiment: Human whole blood in vitro activity assay, COX-1 (TXB2 by EIA); assay type: cell-based; conditions: read-out: IC50 (μg/mL) COX-1 (converted)
T1 construct: from tissue; host or cells: human whole blood without heparin (platelets) from healthy volunteers
Experimental: Human whole blood in vitro activity study: inhibition of activity of cyclooxygenase-1 (COX-1 enzyme) and cyclooxygenase-2 (COX-2 enzyme) in human blood. […] The blood samples were divided into two parts: one was used for detecting COX-1 enzyme activity, and the other was used for detecting COX-2 enzyme activity. The compounds were dissolved in DMSO, and were prepared in advance into 2 μL solutions in respective concentrations of 500, 50, 5, 0.5, 0.05, 0.005, 0.0005 μg/mL. 200 μL whole blood without heparin was added in the tubes containing the compounds, and then incubated at 37° C. for 1 hour. The activity of COX-1 enzyme was detected by determining the amount of thromboxane B2 (TXB2) synthesized by platelet using an EIA kit. Samples tested without the compounds were negative controls. For COX-2, 200 μL whole blood with heparin was added in the tubes containing the compounds and in the tubes containing 10 μg/mL LPS. LPS control and blank control with solvent only were used respectively for determining the maximum value and the background value of the PGE2 produced therefrom. The samples were incubated at 37° C. for 24 hours, and then centrifuged to collect serum/plasma, which was stored at −80° C. for detection by an EIA kit. The EIA kit of Cayman Company was used, the amounts of TXB2 and PGE2 were determined in accordance to the manufacturer's instructions, and the activities of COX-1 and COX-2 were tested respectively.

[2] = biological target: T2, COX-2 (Canis lupus familiaris, UniProt Q8SPQ9); experiment: Dog whole blood in vitro activity assay, COX-2; assay type: cell-based, beagle dog
T2 construct: in vitro activity study using beagle dog whole blood was conducted; from tissue; host or cells: beagle dog whole blood, stimulated with LPS (by the same method as for human blood)
T2 sequence (Q8SPQ9 18-604): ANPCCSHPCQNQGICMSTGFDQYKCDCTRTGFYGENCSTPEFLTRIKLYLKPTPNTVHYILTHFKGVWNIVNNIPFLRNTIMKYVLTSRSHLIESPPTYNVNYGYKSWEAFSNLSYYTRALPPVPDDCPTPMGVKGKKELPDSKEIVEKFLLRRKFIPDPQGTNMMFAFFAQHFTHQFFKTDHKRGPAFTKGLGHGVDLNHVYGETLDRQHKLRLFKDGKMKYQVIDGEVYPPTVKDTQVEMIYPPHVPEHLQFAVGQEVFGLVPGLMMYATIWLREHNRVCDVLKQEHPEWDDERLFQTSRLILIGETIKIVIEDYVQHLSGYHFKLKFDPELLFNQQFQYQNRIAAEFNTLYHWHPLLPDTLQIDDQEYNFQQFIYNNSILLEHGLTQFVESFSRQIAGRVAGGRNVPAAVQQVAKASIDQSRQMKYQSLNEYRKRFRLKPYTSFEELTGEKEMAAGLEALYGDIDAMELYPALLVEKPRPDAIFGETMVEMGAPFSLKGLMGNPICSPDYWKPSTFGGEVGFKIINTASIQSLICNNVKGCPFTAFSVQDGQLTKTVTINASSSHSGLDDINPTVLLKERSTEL

[3] = tested on: mice tail suspension immobility time; experiment: Tail suspension test in mice (anti-depression model); assay type: in vivo, Male Kunming mice
Experimental: In Vivo Test: Tail Suspension Test in Mice (Evaluation on an Anti-Depression Model)
Male Kunming mice, approximately 20 g, were randomized into six groups, i.e. normal group, positive drug group (fluoxetine 20 mg/kg), compound 1: group A 5 mg/kg, group B 10 mg/kg, group C 20 mg/kg, and group D 40 mg/kg.
Single Dose Test: Mice were normally fed for 1 day and allowed to adapt to the environment. Then the mice were fasted (except water) for 16 hours, and were intragastrically administrated with a single dose of the compound. The normal group was intragastrically administrated with an equivalent amount of distilled water. 40 min after the administration, the mice were inverted and fixed to a tail suspension device, and the distance between the head and the desktop was about 30 cm. Immobility time was recorded with an analysis record system, for the latter 4 min within the 6 min recording period, and was used for statistical analysis.
(§1) Study with Three-Day Consecutive Dosing: Mice were normally fed for 1 day and allowed to adapt to the environment. Then the mice were intragastrically administrated with the test drug for 3 consecutive days (once per day), and the normal group was intragastrically administrated with an equivalent amount of distilled water. The mice were fasted (except water) for 16 hours before the last dosing. 40 min after the last dosing, the mice were inverted and fixed to the tail suspension device, and the distance between the head and the desktop was about 30 cm. Immobility time was recorded with an analysis record system, for the latter 4 min within the 6 min recording period, and was used for statistical analysis.
as §1, with “with Seven-Day” for “with Three-Day”, “intragastrically dosed” for “intragastrically administrated with the test drug”, “for 7” for “for 3”, “days (once/day),” for “days (once per day),”, “last administration.” for “last dosing.”, “last administration,” for “last dosing,”

T1 sequence (P23219 24-599): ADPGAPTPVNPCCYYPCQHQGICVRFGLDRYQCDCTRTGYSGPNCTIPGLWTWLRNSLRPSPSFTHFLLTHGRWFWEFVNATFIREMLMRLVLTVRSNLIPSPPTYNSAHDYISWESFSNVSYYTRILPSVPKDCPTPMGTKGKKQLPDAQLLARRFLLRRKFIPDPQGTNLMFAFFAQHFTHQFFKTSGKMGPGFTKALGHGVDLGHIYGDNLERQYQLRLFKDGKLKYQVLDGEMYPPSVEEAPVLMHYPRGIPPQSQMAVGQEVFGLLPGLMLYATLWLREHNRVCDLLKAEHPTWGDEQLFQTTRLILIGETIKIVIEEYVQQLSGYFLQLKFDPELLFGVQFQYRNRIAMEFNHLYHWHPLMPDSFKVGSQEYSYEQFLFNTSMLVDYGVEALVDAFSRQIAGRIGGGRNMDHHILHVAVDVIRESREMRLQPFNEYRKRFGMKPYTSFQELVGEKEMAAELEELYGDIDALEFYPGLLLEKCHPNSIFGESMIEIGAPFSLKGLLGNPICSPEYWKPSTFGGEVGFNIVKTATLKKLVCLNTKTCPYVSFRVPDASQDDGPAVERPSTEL

CS(=O)(=O)c1ccc(-n2cnc(Cl)c2-c2ccccc2)nc1 [Compound 1, 2-(4-chloro-5-phenyl-1H-imidazol-1-yl)-5-(methylsulfonyl)pyridine] gave an IC50 [1] of 39.5 µM, an IC50COX-1/IC50COX-2 [2] of 83.2 and an IC50 ([2]; read-out: IC50 (μg/mL) COX-2 (converted)) of 2.64 µM. The “tail suspension Immobility time” value ([3]; 3 days consecutive administration, 5 mg/kg intragastric, in s (unit assumed)) was 45.36 ± 12.09, the “tail suspension Immobility time” value ([3]; 3 days consecutive administration, 10 mg/kg intragastric, in s (unit assumed)) was 31.94 ± 8.76 and the “tail suspension Immobility time” value ([3]; 3 days consecutive administration, 20 mg/kg intragastric, in s (unit assumed)) was 33.64 ± 15.78. The “tail suspension Immobility time” value ([3]; 3 days consecutive administration, 40 mg/kg intragastric, in s (unit assumed)) was 41.36 ± 14.22, the “tail suspension Immobility time” value ([3]; 7 days consecutive administration, 5 mg/kg intragastric, 5 mg/kg, in s (unit assumed)) was 45.11 ± 16.88 and the “tail suspension Immobility time” value ([3]; 7 days consecutive administration, 5 mg/kg intragastric, listed as test drug, 5 mg/kg) was “tendency of reduction in immobility time”. The “tail suspension Immobility time” value ([3]; 7 days consecutive administration, 10 mg/kg intragastric, in s (unit assumed)) was 36.47 ± 15.13, the “tail suspension Immobility time” value ([3]; 7 days consecutive administration, 20 mg/kg intragastric, in s (unit assumed)) was 29.98 ± 9.87 and the “tail suspension Immobility time” value ([3]; 7 days consecutive administration, 40 mg/kg intragastric, in s (unit assumed)) was 29.70 ± 15.02. For the same compound, the “tail suspension Immobility time” value ([3]; single dose, 5 mg/kg intragastric, 40 min after administration, in s (unit assumed)) was 46.57 ± 16.46, the “tail suspension Immobility time” value ([3]; single dose, 10 mg/kg intragastric, 40 min after administration, in s (unit assumed)) was 47.10 ± 17.93 and the “tail suspension Immobility time” value ([3]; single dose, 20 mg/kg intragastric, 40 min after administration, in s (unit assumed)) was 43.25 ± 14.41. The “tail suspension Immobility time” value ([3]; single dose, 40 mg/kg intragastric, 40 min after administration, in s (unit assumed)) was 46.58 ± 15.32.
